From patent US11207277B2, “Methods of treating diseases associated with high-fat diet and vitamin a deficiency using retinoic acid receptor agonists” (Cornell University, priority 2013, dated 2021) come the findings set out here.

“Also recorded” adds a separate entry of the source.

Common to all, as to type: in vivo
Assay [1] has as its system all-trans retinol. Put plainly: HPLC analysis of serum retinol. Conditions: CF, HF and HF+AC261066 fed mice. An excerpt: (§1) WT male C57/BL6 male mice were maintained on either a standard laboratory chow-fed diet (CFD) with 13% kcal fat, (diet #5053, Lab Diet, Inc, St. Louis, Mo.) or a high fat, western style diet (HFD) with 60% kcals from fat, (diet #58126, Lab Diet, Inc., St. Louis, Mo.) for 4 months. One month after the start of the high fat diet treatment, the high fat diet group was further split into 2 groups for 3 months: i) high fat diet and the drinking water containing 1% DMSO; ii) high fat diet and the drinking water containing 1.5 mg/100 ml AC261066, a specific RARβ agonist. Then mice were sacrificed by cervical dislocation. Blood and various tissue samples were harvested.
The frozen liver tissue samples (˜100 mg) were homogenized in 500 μl cold phosphate-buffered saline (PBS). In addition, 100 μl serum was diluted in cold PBS to total volume of 500 μl. Retinyl acetate was added to each sample before the retinoid extraction for the calculation of extraction efficiency. The retinoids were extracted into 350 μl of organic solution (acetonitrile/butanol, 50:50, v/v) in the dark. The high performance liquid chromatography (HPLC) was performed using a Waters Millennium system (Waters). […] The amounts of retinoids were calculated from the areas under the peaks detected at the wave-length of 325 nm. […]

Assay [2] concerns hepatic lipids. The assay is described as follows: Oil red O staining of liver sections. As to conditions: HF diet mice + AC261066 or CD1530; vs HF-vehicle.
Excerpt: as §1
(§2) Staining. Fresh mouse liver samples were embedded in optimal cutting temperature (OCT) medium and immediately frozen to −70 centigrade. Cryosections were then fixed in 4% formaldehyde for 1 hr at room temp. Slides were then rinsed three times in deionized water (dH2O) for 30 s, followed by treatment with 0.5% Triton X-100 in PBS for 5 min. Sections were then washed three times with PBS for 5 min. Samples were with incubated 2% bovine serum albumin (BSA) for 30 min at room temperature to block for unspecific antibody binding. Following blocking, sections were washed three times in PBS and incubated with mouse monoclonal antibody against α-SMA (1:500) (Dako, Inc) for 24 h at 4° C. […]

For assay [3], the system named is alpha-SMA. The assay is described as follows: Semi-quantitative PCR liver, alpha-SMA. As to conditions: HF diet mice + AC261066 or CD1530; vs HF-vehicle.
Excerpt: as §1
(§3) Total RNA was extracted from mouse tissues using TRIzol reagent (Life technologies) and (1 μg) was used to synthesize cDNA. cDNA synthesis was performed at 42° C. for 1 h in a final volume of 20 μl using qScript (Quanta, MD). Semi-quantitative PCR were performed Taq DNA polymerase (Invitrogen, CA). Three step PCR was run as follows: 94° C. for 30 s, 58-64° C. for 45 s for primer annealing and 72° C. for 1 min for primer extension. The number of cycles for each primer pair for amplification in the linear range was determined experimentally. PCR products were resolved 2% agarose gels and visualized by staining with ehtidium bromide. Primers for gene expression used were as follows: […]

Assay [4] relates to α-SMA. Put plainly: α-SMA immunofluorescence of kidney sections. As to conditions: HF diet mice + AC261066.
Excerpt: as §1
as §2, with “Fresh” for “Staining. Fresh”, “kidney” for “liver”

For assay [5], the system named is MCP-1. The assay is described as follows: Semi-quantitative PCR liver, MCP-1. Conditions: HF diet mice + AC261066 or CD1530.
Excerpt: as §1, §3

For `CCCCOCCOc1nc(-c2ccc(C(=O)O)c(F)c2)sc1C` [AC261066], the “serum levels of all-trans retinol” value in assay [1] is “not different”. Moreover, the “hepatic lipid accumulation (oil red O)” value in assay [2] was “marked diminished hepatic lipid accumulation”. In assay [3], the “hepatic mRNA levels of alpha-SMA” value is given as “also decreased”. Further, in assay [4], the “α-SMA positive areas in kidney” value was “diminished expression of the fibrogenic protein alpha-SMA; also recorded: not observed”. The “mRNA levels of MCP-1 in liver” value in assay [5] is “decreases levels of inflammatory proteins MCP-1 and TNF alpha”.
